Here are results for 5 compounds from patent US7381748B1, “Compounds and related methods for inhibition of gamma-aminobutyric acid aminotransferase” (Northwestern University, priority 2002, dated 2008).

Structures can show the parent of a compound that is named as a salt. Where two headings read alike, the source gives them in different places.

Experiment [1] addresses T1, GABA-AT (Sus scrofa, UniProt P80147).
T1 construct: purchased
The note with it: cited from earlier work.

Experiment [2] concerns the target T1, GABA-AT. Description: Time-dependent inactivation of GABA-AT. In kind it is biochemical. From the text:
Fluorine incorporation may also make a corresponding intermediate sufficiently reactive to be trapped by the enzyme. While the cis isomer is shown in Scheme 6.
Then a secondary plot of half-life versus the reciprocal of inactivator concentration was obtained to determine KI and kinact.

In experiment [3] the target is T1, GABA-AT. The note with it: as substrate of GABA-AT; cited from earlier work.

T1 sequence (P80147 29-500): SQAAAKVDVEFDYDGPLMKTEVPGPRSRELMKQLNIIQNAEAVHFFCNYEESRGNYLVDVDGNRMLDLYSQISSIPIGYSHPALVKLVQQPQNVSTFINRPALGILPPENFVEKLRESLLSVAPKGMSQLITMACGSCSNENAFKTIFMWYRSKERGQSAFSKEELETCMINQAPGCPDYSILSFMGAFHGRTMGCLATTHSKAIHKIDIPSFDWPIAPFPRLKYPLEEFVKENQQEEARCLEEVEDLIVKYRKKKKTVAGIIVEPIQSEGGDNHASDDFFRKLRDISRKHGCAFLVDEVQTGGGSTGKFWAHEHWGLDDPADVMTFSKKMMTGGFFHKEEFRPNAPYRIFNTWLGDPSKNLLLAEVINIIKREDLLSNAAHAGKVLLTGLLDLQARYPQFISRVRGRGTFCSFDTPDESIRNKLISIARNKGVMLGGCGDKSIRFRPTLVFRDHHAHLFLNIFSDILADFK

On to `C=C1C[C@H](C(=O)O)C[C@@H]1N` [Compound 7, 3β-Amino-4-methylenylcyclopentane-1β-carboxylic acid], for which the “GABA-AT inactivation (in words)” value on GABA-AT [1] (2-mercaptoethanol added to the incubation mixture) is listed as “no inactivation was observed”; at GABA-AT [1] (no 2-mercaptoethanol added), “inactivated GABA-AT”.
For the compound `NC1CC(C(=O)O)C/C1=C\F` [Compound 20, (E)-(1S, 3S)-3-Amino-4-fluoromethylenyl-1-cyclopentanoic acid, hydrochloride salt], the “time-dependent inhibition of GABA-AT (in words)” value at GABA-AT [2] is on record as “potent time-dependent inhibitors of GABA-AT”.
As to `NC1CC(C(=O)O)C/C1=C/F` [Compound 22, (Z)-(1S, 3S)-3-Amino-4-fluoromethylenyl-1-cyclopentanoic acid, hydrochloride salt], the “time-dependent inhibition of GABA-AT (in words)” value at GABA-AT [2] is listed as “potent time-dependent inhibitors of GABA-AT”.
Regarding `NCCCC(=O)O` [GABA, γ-aminobutyric acid], at GABA-AT [3], the Michaelis-Menten constant (Km) is 2400 µM and the kcat was 0.817 s⁻¹.
In the case of `C=CC(N)CCC(=O)O` (stereo not shown) [vigabatrin], the “share of total inactivation accounted for by pathway a (Michael addition)” value on GABA-AT [1] is reported as 70-75%.

Usually Km stands for the concentration of substrate that gives half-maximal velocity. For orientation: kcat means the number of substrate molecules converted per active site and unit of time at saturation.
